Measured values taken from patent US20240279190A1, “COMPOUNDS FOR MODULATING PLATELET-TYPE 12-(S)-LIPOXYGENASE AND METHODS OF USE FOR SAME” (The Regents of The University of California, priority 2021, published 2024).

What was measured:
[1] = system: other LOX isozymes (h5-LOX, h15-LOX-1, h15-LOX-2); assay: Inhibitor selectivity against other LOX isozymes; type: biochemical, human
Description: The wild type 12-LOX (wt-12-LOX) enzyme and its mutants were expressed as fusion proteins, with an N-terminal 6×His tag, and were affinity purified by nickel-iminodiacetic acid agarose using FPLC (Biorad). For inhibitor selectivity, human 5-LOX (h5-LOX, UniProt entry P09917), human reticulocyte 15-LOX-1 (h15-LOX-1, UniProt entry P16050) and human epithelial 15-LOX-2 (h15-LOX-2, UniProt entry 015296) were also isolated. The purity of all the proteins, except h5-LOX, was greater than 90% as determined by SDS-PAGE analysis. h5-LOX was an ammonium sulfate fraction due to the extensive loss of activity upon purification.
IC50 values of ML355 against 12-LOX and its mutants were determined in a similar manner as the steady state kinetic values. The percent inhibition was determined by comparing the enzyme rates of the control (DMSO solvent) and the inhibitor sample by following the formation of the conjugated diene product at 234 nm (ε=25,000 M^−1cm^−1). The reactions were initiated by adding 200 nM 15-LOX-2, 30 nM 12-LOX, 40 nM 15-LOX-1, or approximately 100-300 nM (total protein) of 5-LOX ammonium sulfate fraction to a cuvette with 2 mL reaction buffer, constantly stirred using a magnetic stir bar at room temperature (22° C.). […] The substrate concentration was quantitatively determined by allowing the enzymatic reaction to go to completion in the presence of soybean LOX-1. […]

[2] = target: T1, 12-LOX mutant A417I/V418M (Homo sapiens, UniProt P18054, A417I/V418M); assay: UV-Vis-based IC50 assay, A417I/V418M mutant; type: biochemical
T1 construct: 6xHis (N); made in house; pFastBac1 shuttle vector
T1 sequence (P18054 1-663 A417I/V418M): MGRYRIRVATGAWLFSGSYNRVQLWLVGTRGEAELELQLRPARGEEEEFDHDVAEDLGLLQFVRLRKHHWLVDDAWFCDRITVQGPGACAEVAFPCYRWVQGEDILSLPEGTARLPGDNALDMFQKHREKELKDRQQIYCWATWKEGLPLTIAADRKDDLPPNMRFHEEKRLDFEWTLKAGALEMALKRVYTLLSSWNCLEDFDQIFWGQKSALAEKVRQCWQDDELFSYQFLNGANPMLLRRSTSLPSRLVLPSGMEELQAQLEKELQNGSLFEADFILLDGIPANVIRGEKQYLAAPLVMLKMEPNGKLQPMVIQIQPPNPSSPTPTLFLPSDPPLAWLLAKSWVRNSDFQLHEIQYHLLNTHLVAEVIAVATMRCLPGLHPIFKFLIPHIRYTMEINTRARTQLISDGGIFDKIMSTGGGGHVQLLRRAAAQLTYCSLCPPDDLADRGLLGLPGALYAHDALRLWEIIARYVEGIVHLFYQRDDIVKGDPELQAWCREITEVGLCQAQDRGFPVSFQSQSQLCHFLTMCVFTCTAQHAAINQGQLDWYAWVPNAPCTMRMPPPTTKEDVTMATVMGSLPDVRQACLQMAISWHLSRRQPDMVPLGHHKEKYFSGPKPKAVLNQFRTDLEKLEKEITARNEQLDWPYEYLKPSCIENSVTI
Description: Based on the ML355 binding mode predicted by the modeling, all residues within 5 Å of any atom of ML355 were selected for experimental mutagenesis. The selected residues were replaced with amino acids with either bulkier or smaller side chains in order to determine what specific interactions play a role in inhibitor binding. […] The numbering refers to the UniProt accession number P18054 sequence, with the N-terminal methionine assigned as amino acid number one. The primers for all mutants were designed using the online QuikChange Primer Design tool (http://www.genomics.agilent.com/primerDesignProgram.jsp) from Agilent Technologies (CA, USA). The mutations were introduced by using the QuikChange® II XL site-directed mutagenesis kit from Agilent, following the instructions in the protocol provided. […]
The wild type 12-LOX (wt-12-LOX) enzyme and its mutants were expressed as fusion proteins, with an N-terminal 6×His tag, and were affinity purified by nickel-iminodiacetic acid agarose using FPLC (Biorad).
The percent inhibition was determined by comparing the enzyme rates of the control (DMSO solvent) and the inhibitor sample by following the formation of the conjugated diene product at 234 nm (ε=25,000 M^−1cm^−1). […] The substrate concentration was quantitatively determined by allowing the enzymatic reaction to go to completion in the presence of soybean LOX-1. […]

COc1cccc(CNc2ccc(S(=O)(=O)Nc3nc4c(ccc5ccccc54)s3)cc2)c1O [Compound LOX-12-001, 4-((2-hydroxy-3-methoxybenzyl)amino)-N-(naphtho[1,2-d]thiazol-2-yl)benzenesulfonamide]
selectivity against other LOX isozymes [1]: maintained
IC50 ([2]; A417I/V418M): 120 ± 40 nM
fold decrease in potency (increase in IC50) compared to wt12-LOX ([2]; A417I/V418M vs wt12-LOX): 2.4 fold
